Reference: publication PMC9241644, “Evaluation of Novel Quorum Sensing Inhibitors Targeting Auto-Inducer 2 (AI-2) for the Control of Avian Pathogenic Escherichia coli Infections in Chickens” (Microbiology Spectrum, 2022)
Values joined by “and” are separate entries in the source; they are usually repeats but may differ in a detail not shown here. Identical values can stand only once.

Assays:
[1] = PK profile of QSI-5 and SDM in chicken plasma (LC-MS); assay type: in vivo, chickens
Method: The amount of QSI-5 and SDM in chicken plasma was measured using LC-MS. The optimized dose of QSI-5 (1 mg/L) and the therapeutic dose of SDM (495.323 mg/L) (0.05%) were administered orally as a single dose. Blood was collected individually from five chickens per group at different time points (0 h, 0.5 h, 1 h, 2 h, 4 h, 8 h, 12 h, 24 h) after administration of QSI-5 and SDM in vacutainer EDTA (10.8 mg) tubes (Becton, Dickinson, NJ, USA), blood was placed on ice for 1 h to clot, plasma was separated by centrifuging at 2,000 × g for 10 min at 4°C and stored at −80°C °C for LC-MS analysis. Plasma protein was precipitated by adding cold methanol and 10 μL (1 μg/mL) of an internal standard (IS) heavy-labeled phenylalanine (dissolved in 0.1% formic acid) was added to each 100 μL aliquot. The mixture was then incubated at −20°C for 30 min and centrifuged at 1300 × g for 25 min at 2°C. Sixty μL of the supernatant was pipetted into LC vials. For standard calibration, solutions of 0.0, 0.001, 0.005, 0.01, 0.05, 0.1, 0.5, 1, and 5 μg/mL of QSI-5 and SDM were prepared and 20 μL of each standard solution was added to 80 μL of cold methanol and IS as mentioned above. All samples were run by injecting 5 μL on an Agilent Poroshell 120 SB-C18 (2 × 100 mm in diameter, 2.7 μm particle sizes). The LC system (Thermo Fisher Scientific UltiMate 3000 HPLC) was used with solvent A (10 mM ammonium formate and 0.1% formic acid) and solvent B (methanol with a flow rate of 200 μL/min). The gradient was set to 2% B at 2 min, increased from 2% to 20% at 5 min, 40% at 7.5 min, and reached 90% after 9 min. The gradient was sustained at 90% B for 11 min and then decreased to 2% at 12 min and was held for equilibration until the run ended after 15 min. The mass spectrometer (Thermo Fisher Scientific Quantiva Triple Quadrupole) was set to multiple reactions monitoring mode (SRM) with a heated electrospray ionization source (ESI) in positive mode at 3.5 kV. Drug targets were monitored for QSI-5 at transitions 309.26→105.1 m/z and 309.26→203.15 m/z at 28 and 20 V collision energy, respectively, and for SDM at transitions 311.11→156.11 m/z and 311.11→245.07 m/z at 21 and 18 V CE. The analysis of plasma samples was performed in Campus Chemical Instrumentation Center, Mass Spectrometry and Proteomics Facility (CCIC, MS&P), The Ohio State University (https://live-ccic.pantheonsite.io/MSP).

[2] = test system: Rif^R APEC O78; assay: Comparative efficacy of QSI-5 and SDM in field simulated conditions (built-up floor litter); assay type: in vivo, Escherichia coli
Excerpt: Chickens were monitored for clinical signs for 8 DPI. Any chickens moribund during this period were humanely euthanized and necropsied to determine bacterial load in the internal organs (liver, heart, lung, and kidney). Internal organs were aseptically collected, weighed and suspended in 1× PBS, the amount of PBS added was adjusted based on the organ size to make a suspension, the organ size and amount of PBS added were included in the final calculation of the CFU. The samples were homogenized, serially diluted 10-fold, plated on MacConkey agar (Remel, CA, USA) containing 50 μg/mL rifampicin, and incubated at 37°C for 24 h to determine the CFU/g. Pathological lesions severity in internal organs (pericarditis, perihepatitis, airsacculitis, and lung congestion) was scored as described previously ([21], [59]). At 8 DPI, the remaining chickens were humanely euthanized and necropsied, lesions were scored, and the APEC load was quantified in internal organs as described above.
To compare the efficacy of QSI-5 with an antibiotic SDM currently used in the field, chickens (n = 70) were raised on built-up floor litter in a field-simulated conditions. One-day-old broiler chickens (Case Farms Ohio Hatchery, OH, USA) were used for conducting the experiment. The optimized dose of QSI-5 (1 mg/L) and the therapeutic dose of SDM (495.323 mg/L) (0.05%) were given in drinking water daily for 7 days (starting from day 5 to day 11 of age). The volume of drinking water needed daily was determined as described above. On day 6, the chickens were infected s/c with Rif^r APEC O78 (5 × 10^6 CFU/chicken, s/c). PC (0.05% DMSO treated and infected) and NC (non-infected and non-treated) control groups were included. The mortality was recorded daily until the end of the experiment (42 days of age: slaughter age). At 8 DPI, half of the chickens from each group were necropsied, lesions were scored, and the APEC load was quantified in the internal organs as described above. The other half of the chickens were raised until day 42 to determine the impact of treatment on the body weight gain and feed intake. To calculate the FCR, body weight was measured once every week and feed intake was recorded every day. On day 42, the remaining chickens were euthanized, body weight was measured and 10 chickens from each group were randomly selected and necropsied, lesions and APEC load were assessed in the internal organs.

[3] = test system: APEC; parameters: method as in PMID 30270715; conditions: in vitro; cited from earlier work
[4] = single oral dose (QSI-5 1 mg/L, SDM 495.323 mg/L)

Cc1ccc(CN2CCN(CCCc3ccccc3)CC2)cc1 [QSI-5]
half-life ([1]; single oral dose): short half-life
time by which excreted ([1]; single oral dose): ≤ 24 HPT
maximum concentration in plasma (Cmax) [1, 4]: 0.76 ng/mL
time of peak concentration in plasma [1, 4]: 2 HPT
time at which absorbed / detected in blood ([1]; single oral dose (QSI-5 1 mg/L, SDM 495.323 mg/L), h posttreatment): 0.5 HPT
Average lesion severity, Lung ([2]; Table S3, PC 1.85): 0.21
Average lesion severity, Liver ([2]; Table S3, PC 2.52): 1.68
Average lesion severity, Airsac ([2]; Table S3, PC 3.36): 1.25
Average lesion severity, Heart ([2]; Table S3, PC 3.58): 1.93
Average APEC load, Liver ([2]; Table S3, PC 7.24): 4.95 Log CFU/ g of tissue
Average APEC load, Lung ([2]; Table S3, PC 7.68): 4.93 Log CFU/ g of tissue
Average APEC load, Kidney ([2]; Table S3, PC 7.73): 5.06 Log CFU/ g of tissue
Average APEC load, Heart ([2]; Table S3, PC 7.92): 5.46 Log CFU/ g of tissue
Mortality rate % (Nr.) ([2]; Table S3, until 42 days of age, QSI-5 (8/63), SDM (19/65), PC 45.6 (31/68)): 12.7%
reduction in mortality compared with the PC group ([2]; built-up floor litter, QSI-5 1 mg/L, SDM 495.3 mg/L (0.05%) in drinking water 7 days, s/c APEC O78 5 × 10^6 CFU/chicken): 88.4% and 72.2%
effect on the growth of APEC [3]: does not affect the growth of APEC
